Measured values from BigSolDB 2.1.

Nc1cnc(Cl)cn1
solubility (mole fraction)
Conditions | 278.15 K | 283.15 K | 288.15 K | 293.15 K | 298.15 K | 303.15 K | 308.15 K | 313.15 K | 318.15 K | 323.15 K
in ethanol | 0.00222 | 0.00302 | 0.00388 | 0.00477 | 0.0058 | 0.00692 | 0.00813 | 0.00961 | 0.0111 | 0.0131
in ethylene glycol | 0.000321 | 0.000398 | 0.000506 | 0.000615 | 0.000747 | 0.000868 | 0.00102 | 0.00117 | 0.00136 | 0.00157
in methanol | 0.00319 | 0.00442 | 0.00573 | 0.0073 | 0.00915 | 0.0109 | 0.0127 | 0.0149 | 0.0173 | 0.0201
in n-propanol | 0.000781 | 0.001 | 0.00126 | 0.00152 | 0.00181 | 0.00214 | 0.00252 | 0.00291 | 0.00334 | 0.00383
in water | 3.69e-05 | 4.76e-05 | 6.03e-05 | 7.35e-05 | 8.88e-05 | 0.000106 | 0.000123 | 0.000141 | 0.000161 | 0.000182
